Assays:
A549 = assay: Antiproliferative activity against human A549 cells assessed as inhibition of cell growth incubated for 48 hrs by MTT assay; type: functional, cell-based; conditions: A549, 48 h
Caco-2 = assay: Antiproliferative activity against human Caco2 cells assessed as inhibition of cell growth incubated for 48 hrs by MTT assay; type: functional, cell-based; conditions: Caco-2, 48 h
HepG2 = assay: Antiproliferative activity against human HepG2 cells assessed as inhibition of cell growth incubated for 48 hrs by MTT assay; type: functional, cell-based; conditions: HepG2, 48 h
U-87 MG = assay: Antiproliferative activity against human U87MG cells assessed as inhibition of cell growth incubated for 48 hrs by MTT assay; type: functional, cell-based, U-87MG ATCC
HUVEC = assay: Antiproliferative activity against human HUVEC cells assessed as inhibition of cell growth incubated for 48 hrs by MTT assay; type: cell-based

Row | Compound | IC50 (A549) [µM] | IC50 (Caco-2) [µM] | IC50 (HepG2) [µM] | IC50 (U-87 MG) [µM] | IC50 (HUVEC) [µM]
1 | COc1cc(/C=N/Nc2nc(-c3ccccc3)cs2)cc(Br)c1OC | 40 | 64.2 | 68.3 | 74.1 | > 100
2 | COc1ccccc1-c1csc(N/N=C/c2cc(Br)c(OC)c(OC)c2)n1 | 94.9 | > 100 | 82.1 | > 100 | > 100
3 | COc1cc(/C=N/Nc2nc(-c3ccc(Br)cc3)cs2)cc(Br)c1OC | 52.3 | 36.2 | 64.6 | 27.9 | > 100
4 | Fc1ccc(/C=N/Nc2nc(-c3ccccc3)cs2)cc1F | 91.4 | 20.9 | > 100 | > 100 | > 100
5 | COc1cc(/C=N/Nc2nc(-c3ccc(Br)cc3)cs2)c(Br)c(Br)c1OC | 46.1 | > 100 | > 100 | > 100 | > 100
6 | COc1cc(/C=N/Nc2nc(-c3cccc(Br)c3)cs2)c(Br)c(Br)c1OC | 37 | > 100 | > 100 | 27.6 | > 100
7 | COc1ccccc1-c1csc(N/N=C/c2ccc(F)c(F)c2)n1 | 61.3 | 25.2 | > 100 | 40.6 | > 100
8 | Fc1ccc(/C=N/Nc2nc(-c3ccc(F)c(F)c3)cs2)cc1F | 8.49 | 14.2 | 26.6 | 43.9 | 59.7
9 | COc1cc(/C=N/Nc2nc(-c3ccc(C(F)(F)F)cc3)cs2)cc(Br)c1OC | 18.3 | 65.9 | 31.2 | 41 | > 100
10 | O=C(O)/C(Cc1ccccc1[N+](=O)[O-])=N\Nc1nc(-c2ccc(Cl)c(Cl)c2)cs1 | 58.6 | 44.7 | 36.9 | 75 | 67.5
11 | COc1cc(/C=N/Nc2nc(-c3ccc(C(F)(F)F)cc3)cs2)c(Br)c(Br)c1OC | 17.6 | > 100 | > 100 | > 100 | > 100
12 | COc1cc(/C=N/Nc2nc(-c3cc(C(F)(F)F)cc(C(F)(F)F)c3)cs2)cc(Br)c1OC | 94.2 | > 100 | > 100 | > 100 | > 100

The next lines start with results.

Row | IC50 (A549) [µM] | IC50 (Caco-2) [µM] | IC50 (HepG2) [µM] | IC50 (U-87 MG) [µM] | Compound | IC50 (HUVEC) [µM]
13 | > 100 | 43.9 | > 100 | > 100 | Fc1ccc(/C=N/Nc2nc(-c3ccc(Br)cc3)cs2)cc1F | > 100
14 | 85.1 | > 100 | > 100 | > 100 | COc1ccccc1-c1csc(N/N=C/c2cc(OC)c(OC)c(Br)c2Br)n1 | > 100
15 | 6.23 | 62.8 | 16.7 | 29.7 | Fc1ccc(/C=N/Nc2nc(-c3cc(C(F)(F)F)cc(C(F)(F)F)c3)cs2)cc1F | > 100
16 | 15.3 | 26.5 | 33.6 | 20.1 | COc1cc(/C=N/Nc2nc(-c3ccccc3)cs2)c(Br)c(Br)c1OC | > 100
17 | 21.1 | 21.2 | 22.4 | 26.3 | COc1cc(/C=N/Nc2nc(-c3ccc(F)c(F)c3)cs2)cc(Br)c1OC | > 100
18 | 56 | 43.4 | 66.2 | 86.3 | COc1cc(/C=N/Nc2nc(-c3cccc(Br)c3)cs2)cc(Br)c1OC | > 100
19 | 8.38 | 22.8 | 49.7 | 19.6 | COc1cc(/C=N/Nc2nc(-c3ccc(F)c(F)c3)cs2)c(Br)c(Br)c1OC | 54.7
20 | > 100 | > 100 | > 100 | > 100 | COc1cc(/C=N/Nc2nc(-c3cc(C(F)(F)F)cc(C(F)(F)F)c3)cs2)c(Br)c(Br)c1OC | > 100
21 | 16.2 | 17.5 | 16.7 | 39.9 | Fc1ccc(/C=N/Nc2nc(-c3cccc(Br)c3)cs2)cc1F | > 100

Reference: ChEMBL document CHEMBL4393720, “Design, synthesis and biological evaluation of bromophenol-thiazolylhydrazone hybrids inhibiting the interaction of translation initiation factors eIF4E/eIF4G as multifunctional agents for cancer treatment” (Eur J Med Chem, 2019)
